Results reported in patent US7491722B2, “Pyridazin-3(2H)-one derivatives” (Laboratorios Almirall S.A., priority 2002, dated 2009).

Legend:
[1] = system: PDE4; experiment: PDE4 Assay Procedure ([3H]-cAMP SPA); assay type: biochemical
Procedure: Compounds to be tested were resuspended in DMSO at a stock concentration of 1 mM. The compounds were tested at different concentrations varying from 10 μM to 10 pM to calculate an IC50. These dilutions were done in 96-well plates. In some cases, plates containing diluted compounds were frozen before being assayed. In these cases, the plates were thawed at room temperature and stirred for 15 minutes.
Ten microliters of the diluted compounds were poured into a “low binding” assay plate. Eighty microliters of reaction mixture containing 50 mM Tris pH 7.5, 8.3 mM MgCl2, 1.7 mM EGTA, and 15 nM [3H]-cAMP were added to each well. The reaction was initiated by adding ten microliters of a solution containing PDE4. The plate was then incubated under stirring for 1 hour at room temperature. After incubation the reaction was stopped with 50 microlitres of SPA beads, and the reaction was allowed to incubate for another 20 minutes at room temperature before measuring radioactivity using standard instrumentation.
The reaction mixture was prepared by adding 90 ml of H2O to 10 ml of 10× assay buffer (500 mM Tris pH 7.5, 8.3 mM MgCl2, 17 mM EGTA), and 40 microlitres 1 μCi/μL [3H]-cAMP. SPA beads solution was prepared by adding 500 mg to 28 ml H2O for a final concentration of 20 mg/ml beads and 18 mM zinc sulphate.

Structure (SMILES) | IC50 [1] | melting point
CCn1nc(-c2ccncc2)c(C(C)=O)c(Nc2ccccc2C)c1=O [Example 33, 5-Acetyl-2-ethyl-4-[(2-methylphenyl)amino]-6-pyridin-4-ylpyridazin-3(2H)-one] | 0.11 nM | 
CCn1nc(-c2ccccc2)c(C(C)=O)c(Nc2cccc3ncccc23)c1=O [Example 82, 5-Acetyl-2-ethyl-6-phenyl-4-(quinolin-5-ylamino)pyridazin-3(2H)-one] | 0.3 nM | 
CCn1nc(-c2cccnc2)c(C(C)=O)c(Nc2cccc(F)c2)c1=O [Example 1, 5-Acetyl-2-ethyl-4-[(3-fluorophenyl)amino]-6-pyridin-3-ylpyridazin-3(2H)-one] | 2.3 nM | 
CCn1nc(-c2ccc(F)cc2)c(C(C)=O)c(Nc2cccnc2)c1=O [Example 93, 5-Acetyl-6-(4-fluorophenyl)-2-ethyl 4-(pyridin-3-ylamino)-pyridazin-3(2H)-one] | 8.3 nM | 
CC(=O)c1c(-c2cccc(F)c2)nn(C(C)C)c(=O)c1Nc1cccnc1 [Example 91] | 9.4 nM | 
CCn1nc(-c2ccccc2)c(C(C)=O)c(Nc2cccc3[nH]ccc23)c1=O [Example 69, 5-Acetyl-2-ethyl-4-(1H-indol-4-ylamino)-6-phenylpyridazin-3(2H)-one] | 2 nM | 
CC(=O)c1c(-c2cccc(F)c2)nn(CC2CC2)c(=O)c1Nc1cccnc1 [Example 92, 5-Acetyl-2-cyclopropylmethyl-6-(3-fluorophenyl)-4-(pyridin-3-ylamino)-pyridazin-3(2H)-one] | 11 nM | 
CCn1nc(-c2ccccc2)c(C(C)=O)c(Nc2cccnc2)c1=O [Example 63, 5-Acetyl-2-ethyl-6-phenyl-4-(pyridin-3-ylamino)pyridazin-3(2H)-one] | 24 nM | 
CCn1nc(-c2ccncc2)c(C(C)=O)c(Nc2ccc(C(=O)O)cc2)c1=O [Example 41, 4-[(5-acetyl-2-ethyl-3-oxo-6-pyridin-4-yl-2,3-dihydropyridazin-4-yl)amino]benzoic acid] | 16 nM | 
CCn1nc(-c2ccccc2)c(C(C)=O)c(Nc2cccc3cccnc23)c1=O [Example 67, 5-Acetyl-2-ethyl-6-phenyl(quinolin-8-ylamino)pyridazin-3(2H)-one] | 10 nM | 

Now from value to compound:

IC50 [1] | melting point | Structure (SMILES)
4.5 nM |  | CCn1nc(-c2ccncc2)c(C(C)=O)c(Nc2cccc(Cl)c2)c1=O [Example 31, 5-Acetyl-4-[(3-chlorophenyl)amino]-2-ethyl-6-pyridin-4-ylpyridazin-3(2H)-one]
2.6 nM |  | CCn1nc(-c2ccccc2)c(C(C)=O)c(Nc2cccc3cnccc23)c1=O [Example 84, 5-Acetyl-2-ethyl-4-(isoquinolin-5-ylamino)-6-phenylpyridazin-3(2H)-one]
 | 245 to 246.1 °C | CCn1nc(-c2cccc(C)c2)c(C(C)=O)c(Nc2cccc3ncccc23)c1=O [Example 195, 5-Acetyl-2-ethyl-6-(3-methylphenyl)-4-(quinolin-5-ylamino)pyridazin-3(2H)-one]
0.59 nM |  | CCn1nc(-c2ccncc2)c(C(C)=O)c(Nc2cccc3ccccc23)c1=O [Example 32, 5-Acetyl-2-ethyl-4-(1-naphthylamino)-6-pyridin-4-ylpyridazin-3(2H)-one]
6.8 nM |  | CCn1nc(-c2cccnc2)c(C(C)=O)c(Nc2cccc3ccccc23)c1=O [Example 4, 5-Acetyl-2-ethyl-4-(1-naphthylamino)-6-pyridin-3-ylpyridazin-3(2H)-one]
5.2 nM |  | CCn1nc(-c2cccs2)c(C(C)=O)c(Nc2cccc(Cl)c2)c1=O [Example 52, 5-Acetyl-4-[(3-chlorophenyl)amino]-2-ethyl-6-thien-2-ylpyridazin-3(2H)-one]
